Results from ChEMBL document CHEMBL5257089, “Gamabufotalin Induces Apoptosis and Cytoprotective Autophagy through the mTOR Signaling Pathway in Hepatocellular Carcinoma” (J Nat Prod, 2023).
The source made the active and inactive calls. The calls are words filed in the database; no cut-off is given here.

Key:
Hep 3B2 [1] = test: Induction of autophagic flux in human Hep3B cells assessed as rescue of LC3-I accumulation at 10 uM incubated for 48 hrs in presence of gamabufotalin by Western blot analysis; type: functional, cell-based
Hep 3B2 [2] = test: Induction of autophagic flux in human Hep3B cells assessed as rescue of LC3-II accumulation at 10 uM incubated for 48 hrs in presence of gamabufotalin by Western blot analysis; type: functional, cell-based
Hep 3B2 [3] = test: Induction of apoptosis in human Hep3B cells assessed as increase in caspase-3 level at 10 nM incubated for 48 hrs in presence of gamabufotalin by immunoblot analysis; type: functional, cell-based
Hep 3B2 [4] = test: Induction of apoptosis in human Hep3B cells assessed as increase in cleaved PARP level at 10 nM incubated for 48 hrs in presence of gamabufotalin by immunoblot analysis; type: functional, cell-based
Huh-7 [5] = test: Induction of autophagic flux in human Huh-7 cells harbouring mCherry-egfp-LC3 assessed as increase in yellow puncta ratio at 10 nM by fluorescence imaging based assay; type: functional, cell-based
Huh-7 [6] = test: Induction of apoptosis in human Huh-7 cells assessed as necrotic cells at 10 nM incubated for 48 hrs by Annexin V-FITC/PI staining based flow cytometry method (reference value: 1.0%); type: functional
Huh-7 [7] = test: Induction of autophagic flux in human Huh-7 cells assessed as rescue of p62 at 10 uM incubated for 48 hrs in presence of gamabufotalin by Western blot analysis; type: functional, cell-based
Huh-7 [8] = test: Induction of apoptosis in human Huh-7 cells assessed as necrotic cells at 20 nM incubated for 48 hrs by Annexin V-FITC/PI staining based flow cytometry method (reference value: 0.7%); type: functional
Hep 3B2 [9] = test: Induction of autophagic flux in human Hep3B cells assessed as increase in LC3-I expression at upto 25 nM incubated for 48 hrs by Western blot analysis; type: functional, cell-based
Hep 3B2 [10] = test: Induction of apoptosis in human Hep3B cells assessed as increase in PARP level at 25 nM incubated for 48 hrs in presence of chloroquine by immunoblot analysis; type: functional, cell-based
Huh-7 [11] = test: Induction of apoptosis in human Huh-7 cells assessed as early apoptotic cells at 25 nM incubated for 48 hrs in presence of chloroquine by Annexin V-FITC/PI staining based flow cytometry method (reference value: 2.8%); type: functional
Hep 3B2 [12] = test: Antitumor activity against human Hep3B cells xenografted in nude mouse model assessed as upregulation of caspase-3 expression at 5 mg/kg,ip administered every second day for 3 weeks by Western blot analysis; type: functional, organism-based
Huh-7 [13] = test: Induction of autophagic flux in human Huh-7 cells assessed as increase in intracellular vesicles at 25 nM incubated for 48 hrs by transmission electron microscopic analysis; type: functional, cell-based
Hep 3B2 [14] = test: Induction of autophagy in human Hep3B cells harbouring mCherry-egfp-LC3 assessed as reduction in red puncta ratio at 25 nM incubated for 15 mins in presence of 4,6-dimorpholino-N-(4-nitrophenyl)-1,3,5-triazin-2-amine by laser scanning confocal microscopic analysis; type: functional, cell-based
Hep 3B2 [15] = test: Induction of apoptosis in human Hep3B cells assessed as upregulation of cleaved PARP level […] incubated for 48 hrs in presence of 4,6-dimorpholino-N-(4-nitrophenyl)-1,3,5-triazin-2-amine by immunoblot analysis; type: functional, cell-based
Huh-7 [16] = test: Induction of apoptosis in human Huh-7 cells assessed as late apoptotic cells at 25 nM incubated for 48 hrs by Annexin V-FITC/PI staining based flow cytometry method (reference value: 3.8%); type: functional
Hep 3B2 [17] = test: Induction of apoptosis in human Hep3B cells assessed as viable cells at 25 nM incubated for 48 hrs by Annexin V-FITC/PI staining based flow cytometry method (Rvb =95.7%); type: functional; conditions: read-out: Activity
Huh-7 [18] = test: Induction of apoptosis in human Huh-7 cells assessed as increase in cleaved PARP expression at upto 25 nM incubated for 48 hrs by Western blot analysis; type: functional, cell-based
[19] = Toxicity in mouse assessed as effect on serum CERA level at 5 mg/kg,ip administered every second day for 3 weeks by H and E staining based microscopic method; type: organism-based; conditions: in vivo, 504 h
Hep 3B2 [20] = test: Induction of apoptosis in human Hep3B cells assessed as late apoptotic cells at 25 nM incubated for 48 hrs in presence of 4,6-dimorpholino-N-(4-nitrophenyl)-1,3,5-triazin-2-amine by Annexin V-FITC/PI staining based flow cytometry method (reference value: 2.2%); type: functional
Huh-7 [21] = test: Induction of apoptosis in human Huh-7 cells assessed as increase in cleaved PARP level at 25 nM incubated for 48 hrs in presence of chloroquine by immunoblot analysis; type: functional, cell-based
Huh-7 [22] = test: Induction of apoptosis in human Huh-7 cells assessed as necrotic cells at 25 nM incubated for 48 hrs in presence of 4,6-dimorpholino-N-(4-nitrophenyl)-1,3,5-triazin-2-amine by Annexin V-FITC/PI staining based flow cytometry method (reference value: 1.9%); type: functional
Huh-7 [23] = test: Induction of apoptosis in human Huh-7 cells assessed as necrotic cells at 15 nM incubated for 48 hrs by Annexin V-FITC/PI staining based flow cytometry method (reference value: 95.4%); type: functional
[24] = Toxicity in mouse assessed as effect on spleen at 5 mg/kg,ip administered every second day for 3 weeks by H and E staining based microscopic method; type: organism-based; conditions: in vivo, 504 h
Hep 3B2 [25] = test: Antitumor activity against human Hep3B cells xenografted in nude mouse model assessed as upregulation of cleaved caspase-3 expression at 5 mg/kg,ip administered every second day for 3 weeks by Western blot analysis; type: functional, organism-based
Hep 3B2 [26] = test: Induction of apoptosis in human Hep3B cells assessed as increase in caspase-3 level at 25 nM incubated for 48 hrs in presence of chloroquine by immunoblot analysis; type: functional, cell-based
Huh-7 [27] = test: Induction of apoptosis in human Huh-7 cells assessed as early apoptotic cells at 25 nM incubated for 48 hrs in presence of 4,6-dimorpholino-N-(4-nitrophenyl)-1,3,5-triazin-2-amine by Annexin V-FITC/PI staining based flow cytometry method (reference value: 4.3%); type: functional
Huh-7 [28] = test: Induction of apoptosis in human Huh-7 cells assessed as reduction in bcl-2 level […] incubated for 48 hrs in presence of 4,6-dimorpholino-N-(4-nitrophenyl)-1,3,5-triazin-2-amine by immunoblot analysis; type: functional, cell-based
Huh-7 [29] = test: Inhibition of colony formation in human Huh-7 cells at upto 25 uM incubated for 48 hrs by crystal violet staining based analysis; type: functional, cell-based
Huh-7 [30] = test: Induction of apoptosis in human Huh-7 cells assessed as increase in Bcl-2 expression at upto 25 nM incubated for 48 hrs by Western blot analysis; type: functional, cell-based
Huh-7 [31] = test: Induction of morphological changes in human Huh-7 cells assessed as round cell morphology at upto 25 nM incubated for 48 hrs by bright field imaging analysis; type: functional, cell-based
Hep 3B2 [32] = test: Induction of apoptosis in human Hep3B cells assessed as early apoptotic cells at 25 nM incubated for 48 hrs in presence of chloroquine by Annexin V-FITC/PI staining based flow cytometry method (reference value: 1.3%); type: functional
Huh-7 [33] = test: Induction of apoptosis in human Huh-7 cells assessed as increase in caspase-3 level at 25 nM incubated for 48 hrs in presence of chloroquine by immunoblot analysis; type: functional, cell-based
Hep 3B2 [34] = test: Induction of morphological changes in human Hep3B cells assessed as round cell morphology at upto 25 nM incubated for 48 hrs by bright field imaging analysis; type: functional, cell-based

For CCN(CC)CCCC(C)Nc1ccnc2cc(Cl)ccc12 (centres undefined) [CHLOROQUINE], which Activity (Hep 3B2 [1]) is on record?
Its Activity is “Active”.

What about the Activity (Hep 3B2 [2]) of the same molecule?
Its Activity is “Active”.

And the Activity (Hep 3B2 [3])?
The Activity was “Active”.

And the Activity (Hep 3B2 [4])?
Its Activity is “Active”.

And the Activity (Huh-7 [5])?
Its Activity is “Active”.

And the Activity (Huh-7 [6])?
The Activity was 1.9%.

What about the Activity (Huh-7 [7]) of the same molecule?
The Activity was “Active”.

Which Activity (Huh-7 [8]) does the source give for C[C@]12CC[C@H](O)C[C@H]1CC[C@@H]1[C@@H]2[C@H](O)C[C@]2(C)[C@@H](c3ccc(=O)oc3)CC[C@]12O [GAMABUFOTALIN] here?
Its Activity is 4.9%.

And the Activity (Hep 3B2 [9])?
The Activity was “Active”.

What about the Activity (Hep 3B2 [10]) of the same molecule?
The Activity was “Active”.

What about the Activity (Huh-7 [11]) of the same molecule?
The Activity was 12.1%.

What about the Activity (Hep 3B2 [12]) of the same molecule?
Its Activity is “Active”.

What about the Activity (Huh-7 [13]) of the same molecule?
The Activity was “Active”.

And the Activity (Hep 3B2 [14])?
Its Activity is “Active”.

What about the Activity (Hep 3B2 [15]) of the same molecule?
Its Activity is “Active”.

What about the Activity (Huh-7 [16]) of the same molecule?
Its Activity is 7.7%.

What about the viability at 0.025 µM (Hep 3B2 [17]) of the same molecule?
The viability at 0.025 µM was 77.2%.

What about the Activity (Huh-7 [18]) of the same molecule?
The Activity was “Active”.

And the Activity [19]?
Its Activity is “Non-Toxic”.

And the Activity (Hep 3B2 [20])?
Its Activity is 20.2%.

What about the Activity (Huh-7 [21]) of the same molecule?
The Activity was “Active”.

And the Activity (Huh-7 [22])?
The Activity was 1.7%.

What about the Activity (Huh-7 [23]) of the same molecule?
The Activity was 67.6%.

What about the Activity [24] of the same molecule?
Its Activity is “Non-Toxic”.

And the Activity (Hep 3B2 [25])?
Its Activity is “Active”.

And the Activity (Hep 3B2 [26])?
Its Activity is “Active”.

What about the Activity (Huh-7 [27]) of the same molecule?
The Activity was 14.9%.

What about the Activity (Huh-7 [28]) of the same molecule?
The Activity was “Active”.

What about the inhibition (Huh-7 [29]) of the same molecule?
Its inhibition is “Active”.

What about the Activity (Huh-7 [30]) of the same molecule?
The Activity was “Active”.

What about the Activity (Huh-7 [31]) of the same molecule?
The Activity was “Active”.

And the Activity (Hep 3B2 [32])?
Its Activity is 17.9%.

What about the Activity (Huh-7 [33]) of the same molecule?
Its Activity is “Active”.

What about the Activity (Hep 3B2 [34]) of the same molecule?
Its Activity is “Active”.
